# Earlier results in patent EP2732812A1, “Pramipexole retard tablet formulation” (Aristo Pharma GmbH, priority 2012, dated 2014).
# Counter-ions that a name gives are not always drawn.
smiles,measurement,setting,value
CCCN[C@H]1CCc2nc(N)sc2C1 [Pramipexoldihydrochlorid Monohydrat],Löslichkeit In Puffer,"buffer, pH-Wert von 2,0 bis 7,4",> 10 mg/mL
same,Löslichkeit In Wasser,in water,> 20 mg/mL
